The source of these data is PubChem BioAssay (NCI).

Test systems include SK-OV-3 ovarian; HCT-15 colon; RPMI-8226 leukemia; SNB-75 CNS; SK-MEL-5 melanoma; NCI-H460 lung; NCI-H23 lung; SNB-19 CNS; KM12 colon; SK-MEL-2 melanoma.
Holding throughout (experiment): growth of human tumour cells (NCI), 48 h

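Results reflect a 48-hour exposure of cells in 96-well plates to compound at five concentrations. Here, GI50 denotes the concentration required for 50% inhibition of growth. TGI is the concentration that stops growth completely.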

Consider `COC(=O)C[C@H]1CCC2(OCCO2)[C@]1(C)C(=O)OC`, for which the TGI in the experiment with SK-OV-3 ovarian, with HCT-15 colon, with RPMI-8226 leukemia, with SNB-75 CNS, in the experiment on SK-MEL-5 melanoma and in the experiment with NCI-H460 lung was more than 100 µM in each case. The TGI with NCI-H23 lung, with SNB-19 CNS, in the experiment on KM12 colon and with SK-MEL-2 melanoma was more than 100 µM each time.

On to `O=C(c1ccco1)c1nc2ccc(C(F)(F)F)cc2[n+]([O-])c1C(F)(F)F`, for which the GI50 in the experiment on SK-OV-3 ovarian was 33.4 µM; in the experiment on HCT-15 colon it was more than 100 µM; with RPMI-8226 leukemia it was 20.3 µM; with SNB-75 CNS it was 10.6 µM; in the experiment with SK-MEL-5 melanoma, 31.6 µM; in the experiment on NCI-H460 lung, 44 µM. Further, the GI50 in the experiment with NCI-H23 lung was 46.7 µM; in the experiment on SNB-19 CNS, 36.4 µM; in the experiment with KM12 colon, 67.7 µM; in the experiment with SK-MEL-2 melanoma, 87.7 µM. Besides, the TGI in the experiment on SK-OV-3 ovarian is more than 100 µM; in the experiment on HCT-15 colon it was more than 100 µM; in the experiment on RPMI-8226 leukemia, 93 µM; with SNB-75 CNS it was 37.8 µM; in the experiment with SK-MEL-5 melanoma, more than 100 µM; in the experiment with NCI-H460 lung, more than 100 µM. In addition, the TGI with NCI-H23 lung, in the experiment with SNB-19 CNS, with KM12 colon and with SK-MEL-2 melanoma was more than 100 µM each time.

Take `O=C1OCc2c1cc1ccc(O)c(OC3OC(CO)C(O)C(O)C3O)c1c2-c1ccc2c(c1)OCO2` (configuration not stated): the TGI was more than 100 µM with SK-OV-3 ovarian; more than 100 µM in the experiment with HCT-15 colon; more than 100 µM with RPMI-8226 leukemia; more than 100 µM in the experiment with SNB-75 CNS; 74.9 µM in the experiment with SK-MEL-5 melanoma; more than 100 µM in the experiment on NCI-H460 lung. Further, the TGI in the experiment with NCI-H23 lung, with SNB-19 CNS, in the experiment on KM12 colon and in the experiment on SK-MEL-2 melanoma was more than 100 µM in each case. Further, the GI50 with RPMI-8226 leukemia was 34.6 µM; in the experiment on SNB-75 CNS, 55.2 µM; with SK-MEL-5 melanoma it was 26.2 µM; in the experiment with NCI-H23 lung, 47.5 µM; in the experiment with SNB-19 CNS it was 36 µM; with KM12 colon, 23.4 µM. For the same compound, the GI50 in the experiment with SK-MEL-2 melanoma was 33.5 µM.

Take `COc1cccc(/C=N/NC(=O)c2ccccc2Nc2ccnc(C(F)(F)F)c2)c1O`: the GI50 in the experiment with SK-OV-3 ovarian was 0.583 µM; in the experiment with HCT-15 colon, 0.201 µM; in the experiment with RPMI-8226 leukemia, 0.156 µM; in the experiment with SNB-75 CNS, 1.62 µM; in the experiment on SK-MEL-5 melanoma, 0.418 µM; with NCI-H460 lung it was 0.262 µM. In addition, the GI50 is 0.904 µM in the experiment with NCI-H23 lung, 2.41 µM in the experiment with SNB-19 CNS, 0.457 µM with KM12 colon and 2.13 µM in the experiment on SK-MEL-2 melanoma. Besides, the TGI in the experiment on SK-OV-3 ovarian was 31 µM; in the experiment with HCT-15 colon, more than 100 µM; in the experiment on RPMI-8226 leukemia, 0.983 µM; in the experiment with SNB-75 CNS, more than 76.5 µM; with SK-MEL-5 melanoma, 5.65 µM; in the experiment with NCI-H460 lung, 8.26 µM. Also, the TGI is 46.9 µM in the experiment on NCI-H23 lung, more than 100 µM in the experiment on SNB-19 CNS, more than 56.4 µM in the experiment on KM12 colon and more than 44 µM with SK-MEL-2 melanoma.

In the case of `Cc1c(C(=O)N/N=C/c2ccc(Cl)cc2)nnn1-c1ccnc2c(C(F)(F)F)cccc12`, the GI50 in the experiment on SK-OV-3 ovarian was 11.6 µM; in the experiment with HCT-15 colon, 2.88 µM; in the experiment with RPMI-8226 leukemia, 4.2 µM; in the experiment with SNB-75 CNS, 2.63 µM; in the experiment on SK-MEL-5 melanoma, 28.4 µM; in the experiment on NCI-H460 lung, 4.49 µM. The GI50 with NCI-H23 lung is 13.5 µM; with SNB-19 CNS, 12.1 µM; in the experiment on KM12 colon it was 8.94 µM; in the experiment with SK-MEL-2 melanoma it was 18.1 µM. In addition, the TGI was 25.2 µM in the experiment with SK-OV-3 ovarian; 16.3 µM in the experiment with HCT-15 colon; 31.1 µM in the experiment on RPMI-8226 leukemia; 5.18 µM in the experiment on SNB-75 CNS; more than 100 µM with SK-MEL-5 melanoma; 15.8 µM in the experiment on NCI-H460 lung. In addition, the TGI in the experiment with NCI-H23 lung is 35.9 µM; in the experiment on SNB-19 CNS, 30.2 µM; with KM12 colon, 41.7 µM; with SK-MEL-2 melanoma, 54.9 µM.

On to `CSc1cc(N=Nc2nc3ccccc3s2)c2ccccc2c1O`, for which the GI50 is 10.7 µM in the experiment with SK-OV-3 ovarian; 8.31 µM in the experiment on HCT-15 colon; 2.51 µM in the experiment on RPMI-8226 leukemia; 0.0869 µM in the experiment on SNB-75 CNS; 6.43 µM in the experiment with SK-MEL-5 melanoma; 7.83 µM with NCI-H460 lung. The GI50 with NCI-H23 lung was 10.5 µM; in the experiment on SNB-19 CNS it was 9.59 µM; in the experiment on KM12 colon, 5.35 µM; in the experiment on SK-MEL-2 melanoma it was 8.41 µM. In addition, the TGI in the experiment on SK-OV-3 ovarian turned out to be 28.7 µM; with HCT-15 colon, 20.2 µM; in the experiment with RPMI-8226 leukemia, 25.6 µM; with SNB-75 CNS, 11.9 µM; in the experiment on SK-MEL-5 melanoma, 13.3 µM; with NCI-H460 lung, 17.6 µM. In addition, the TGI in the experiment on NCI-H23 lung amounted to 27.9 µM; in the experiment with SNB-19 CNS it was 25.7 µM; with KM12 colon, 28.7 µM; with SK-MEL-2 melanoma, 22 µM.

Regarding `COc1ccccc1C1C(C(=O)Nc2ccccc2)=C(C)NC(C)=C1C(=O)Nc1ccccc1`, the TGI in the experiment on SK-OV-3 ovarian, in the experiment on HCT-15 colon, with RPMI-8226 leukemia, in the experiment with SNB-75 CNS, with SK-MEL-5 melanoma and in the experiment on NCI-H460 lung was more than 100 µM throughout. For the same compound, the TGI in the experiment with NCI-H23 lung, with SNB-19 CNS, with KM12 colon and in the experiment on SK-MEL-2 melanoma was more than 100 µM throughout.

In the case of `Cn1cc(-c2cnc3ccc(NC(=O)Nc4ccc(F)c(Br)c4)cc3n2)cn1`, the GI50 in the experiment with SK-OV-3 ovarian is 2.24 µM; with HCT-15 colon, 1.92 µM; with RPMI-8226 leukemia, 1.25 µM; with SNB-75 CNS, 1.97 µM; in the experiment on SK-MEL-5 melanoma, 1.63 µM; in the experiment on NCI-H460 lung, 1.74 µM. Besides, the GI50 in the experiment on NCI-H23 lung was 1.75 µM; in the experiment on SNB-19 CNS it was 2.66 µM; with KM12 colon it was 1.71 µM; in the experiment with SK-MEL-2 melanoma, 1.97 µM. The TGI with SK-OV-3 ovarian amounted to 5.99 µM; in the experiment on HCT-15 colon, 4.45 µM; in the experiment with RPMI-8226 leukemia, 3.82 µM; with SNB-75 CNS, 4.8 µM; in the experiment on SK-MEL-5 melanoma, 3.03 µM; in the experiment on NCI-H460 lung, 3.77 µM. Moreover, the TGI in the experiment on NCI-H23 lung was found to be 3.91 µM; with SNB-19 CNS, 10.4 µM; in the experiment with KM12 colon, 3.65 µM; with SK-MEL-2 melanoma it was 4.13 µM.

As to `Cc1nc2c(nc1Cl)nc(Oc1ccc(Cl)cc1)c1ccccc12`, the TGI with SK-OV-3 ovarian, in the experiment on HCT-15 colon, in the experiment with RPMI-8226 leukemia, in the experiment on SNB-75 CNS, in the experiment on SK-MEL-5 melanoma and with NCI-H460 lung was more than 100 µM throughout. The TGI was 85 µM with NCI-H23 lung, more than 100 µM with SNB-19 CNS, more than 100 µM in the experiment with KM12 colon and more than 100 µM in the experiment on SK-MEL-2 melanoma.
